Read-outs that look alike come from different tables or passages of the source.
Legend:
H 3211 NSLC cells = experiment: IC50 of continuous and pulsed exposure to SDC-TRAPs; assay type: cell-based
[1] = Stability in mouse plasma; assay type: in vitro ADME; conditions: for % Remaining: 1 h
[2] = Stability in cell culture media; conditions: § not explained
[3] = Tissue distribution of SDC-TRAPs in tumor-bearing mice (plasma, tumor, heart); conditions: mouse, in vivo; for Kp: tissue distribution of SDC-TRAP-0076, read-out: Tumor/Plasma Ratio
[4] = Tissue distribution of ganetespib in female CD-1 nu/nu mice bearing RERF human NSCLC xenografts; assay type: in vivo, mouse; conditions: ganetespib 50 mg/kg IV
Procedure: To confirm the distribution of ganetespib in blood, livers, kidneys, brains, hearts, lungs and tumors after IV administration of ganetespib to female CD-1 nu/nu mice bearing RERF human NSCLC xenografts, and to examine metabolic profiles of ganetespib in plasma, red blood cells, and above tissues.
Animals: female CD-1 nu/nu mice bearing RERF human NSCLC xenografts (N=3/group)
Formulation: 10% DMSO, 18% Cremophor RH40, 3.6% dextrose solution (DRD)
Bleeding time points: 5 min, 6, 24 hr
Collected tissues: blood (plasma and red blood cells (RBC)), liver, kidneys, brain, heart, lung, tumor
Protein precipitation: 50 μL of 10 times diluted plasma or RBC+150 μL ACN (10 mM NH4OAc), vortexed and centrifuged at 10000 rpm for 8 min; 150 μL supernatant+150 μL water (10 mM NH4OAc)
Protein precipitation: 100 μL homogenized tissue (1:3 tissue: PBS buffer)+100 μL ACN (10 mM NH4OAc), vortexed and centrifuged at 10000 rpm for 8 min

[5] = 1 h, read-out: IC50, 1 h-pulse/71 h-compound free, H 3211 NSLC cells, 7.5 × 10^3 cells/well, 1st of 2 columns
[6] = 1 h, read-out: IC50, 1 h-pulse/71 h-compound free, H 3211 NSLC cells, 7.5 × 10^3 cells/well, 2nd of 2 columns
[7] = 72 h, read-out: IC50, 72 h-continuous, H 3211 NSLC cells, 7.5 × 10^3 cells/well, 1st of 3 columns
[8] = 72 h, read-out: IC50, 72 h-continuous, H 3211 NSLC cells, 7.5 × 10^3 cells/well, 2nd of 3 columns
[9] = 72 h, read-out: IC50, 72 h-continuous, H 3211 NSLC cells, 7.5 × 10^3 cells/well, 3rd of 3 columns

IC50 (H 3211 NSLC cells; [5]) | IC50 (H 3211 NSLC cells; [6]) | IC50 (H 3211 NSLC cells; [7]) | IC50 (H 3211 NSLC cells; [8]) | IC50 (H 3211 NSLC cells; [9]) | Compound | also measured
> 3000 nM | > 3000 nM | 287 nM | 839 nM | 735 nM | CC(C)c1cc(-c2nnc(O)n2-c2ccc3c(ccn3CCN(C)C(=O)CCCC(=O)Nc3cccc4c3CN(C3CCC(=O)NC3=O)C4=O)c2)c(O)cc1O (stereo not drawn) [SDC-TRAP-0018, N1-(2-(5-(3-(2,4-dihydroxy-5-isopropylphenyl)-5-hydroxy-4H-1,2,4-triazol-4-yl)-1H-indol-1-yl)ethyl)-N5-(2-(2,6-dioxopiperidin-3-yl)-1-oxoisoindolin-4-yl)-N1-methylglutaramide] | –
> 3000 nM | > 3000 nM | 209 nM | 713 nM | 258 nM | CC(C)c1cc(-c2nnc(O)n2-c2ccc3c(ccn3CCN(C)C(=O)c3ccc(CCc4c[nH]c5nc(N)[nH]c(=O)c45)cc3)c2)c(O)cc1O [SDC-TRAP-0019, 4-(2-(2-amino-4-oxo-4,7-dihydro-3H-pyrrolo[2,3-d]pyrimidin-5-yl)ethyl)-N-(2-(5-(3-(2,4-dihydroxy-5-isopropylphenyl)-5-hydroxy-4H-1,2,4-triazol-4-yl)-1H-indol-1-yl)ethyl)-N-methylbenzamide] | –
> 3000 nM | > 3000 nM | 587 nM | 2620 nM | 2010 nM | CC(C)c1cc(-c2nnc(O)n2-c2ccc3c(ccn3CCOCCNC(=O)c3ccc(CCc4c[nH]c5nc(N)[nH]c(=O)c45)cc3)c2)c(O)cc1O [SDC-TRAP-0020, 4-(2-(2-amino-4-oxo-4,7-dihydro-3H-pyrrolo[2,3-d]pyrimidin-5-yl)ethyl)-N-(2-(2-(5-(3-(2,4-dihydroxy-5-isopropylphenyl)-5-hydroxy-4H-1,2,4-triazol-4-yl)-1H-indol-1-yl)ethoxy)ethyl)benzamide] | –
> 3000 nM | > 3000 nM | 431 nM | 817 nM | 902 nM | CC(C)c1cc(-c2nnc(O)n2-c2ccc3c(ccn3CCN(C)C(=O)NCC(=O)Nc3cccc4c3CN(C3CCC(=O)NC3=O)C4=O)c2)c(O)cc1O (stereo not drawn) [SDC-TRAP-0021, 2-(3-(2-(5-(3-(2,4-dihydroxy-5-isopropylphenyl)-5-hydroxy-4H-1,2,4-triazol-4-yl)-1H-indol-1-yl)ethyl)-3-methylureido)-N-(2-(2,6-dioxopiperidin-3-yl)-1-oxoisoindolin-4-yl)acetamide] | –
– | – | – | – | – | CCc1c2c(nc3ccc(OC(=O)N4CCN(c5ccc(-n6c(O)nnc6-c6cc(C(C)C)c(O)cc6O)cc5)CC4)cc13)-c1cc3c(c(=O)n1C2)COC(=O)C3(O)CC (stereo not drawn) [SDC-TRAP-0045, 4,11-diethyl-4-hydroxy-3,14-dioxo-3,4,12,14-tetrahydro-1H-pyrano[3′,4′:6,7]indolizino[1,2-b]quinolin-9-yl 4-(4-(3-(2,4-dihydroxy-5-isopropylphenyl)-5-hydroxy-4H-1,2,4-triazol-4-yl)phenyl)piperazine-1-carboxylate] | Media (5 μM) % Remaining 1 h (37° C.) § [2]: 72%; Mouse (10 μM) % Remaining 1 h (37° C.) § ([1]; mouse plasma, 10 μM, § not explained): 34%; % Remaining ([1]; mouse plasma, 37° C.): 45%
– | – | – | – | – | CCNC(=O)c1nnc(-c2cc(C(C)C)c(O)cc2O)n1-c1ccc(CN2CCC(C(=O)N3CCC(C(=O)OC4(CC)C(=O)OCc5c4cc4n(c5=O)Cc5c-4nc4ccc(O)cc4c5CC)CC3)CC2)cc1 (stereo not drawn) [SDC-TRAP-0076, 4,11-diethyl-9-hydroxy-3,14-dioxo-3,4,12,14-tetrahydro-1H-pyrano[3′,4′:6,7]indolizino[1,2-b]quinolin-4-yl 1-(1-(4-(3-(2,4-dihydroxy-5-isopropylphenyl)-5-(ethylcarbamoyl)-4H-1,2,4-triazol-4-0)benzyl)piperidine-4-carbonyl)piperidine-4-carboxylate] | % Remaining ([1]; mouse plasma, 37° C.): 96%; Kp ([3]; 1 h): 0.17; Kp ([3]; 6 h): 2.25; Kp ([3]; 24 h): 20.4; Kp ([3]; 48 h): 6.85; Kp ([3]; […]): 0.01
– | – | – | – | – | CC(C)c1cc(-c2nnc(O)n2-c2ccc(CC3CCN(CC(=O)Nc4cccc5c4CN(C4CCC(=O)NC4=O)C5=O)CC3)cc2)c(O)cc1O (stereo not drawn) [SDC-TRAP-0116, 2-(4-(4-(3-(2,4-dihydroxy-5-isopropylphenyl)-5-hydroxy-4H-1,2,4-triazol-4-yl)benzyl)piperidin-1-yl)-N-(2-(2,6-dioxopiperidin-3-yl)-1-oxoisoindolin-4-yl) acetamide] | % Remaining ([1]; mouse, plasma, 10 μM): 91.1%; Kp at 48 h [3]: 4.65
– | – | – | – | – | CCc1c2c(nc3ccc(O)cc13)-c1cc3c(c(=O)n1C2)COC(=O)[C@]3(O)CC [SN-38] | Plasma Conc. ([3]; 1 h): 4.34 µM; Tumor/Plasma Ratio ([3]; 1 h): 0.11; concentration at 1 h ([3]; Plasma Conc.): 8.6 µM; Kp at 1 h ([3]; Tumor/Plasma Ratio): 0.07
– | – | – | – | – | CC(C)c1cc(-c2n[nH]c(=O)n2-c2ccc3c(ccn3C)c2)c(O)cc1O [ganetespib] | Concentration in tumor ([4]; 5 min): 2.35 µM; Concentration in plasma ([4]; 24 hr): <LLOQ; Persistence in tumor versus plasma and other tissues ([4]; up to 24 hr): persist longer in tumor than in plasma or any other tissues studied

Compound | IC50 (H 3211 NSLC cells; [5]) | IC50 (H 3211 NSLC cells; [6]) | IC50 (H 3211 NSLC cells; [7]) | IC50 (H 3211 NSLC cells; [8]) | IC50 (H 3211 NSLC cells; [9]) | also measured
CCc1c2c(nc3ccc(OCC(=O)NCCn4ccc5cc(-n6c(O)nnc6-c6cc(C(C)C)c(O)cc6O)ccc54)cc13)-c1cc3c(c(=O)n1C2)COC(=O)C3(O)CC (stereo not drawn) [SDC-TRAP-0023, 2-((4,11-diethyl-4-hydroxy-3,14-dioxo-3,4,12,14-tetrahydro-1H-pyrano[3′,4′: 6,7]indolizino[1,2-b]quinolin-9-yl)oxy)-N-(2-(5-(3-(2,4-dihydroxy-5-isopropylphenyl)-5-hydroxy-4H-1,2,4-triazol-4-yl)-1H-indol-1-yl)ethyl)acetamide] | > 3000 nM | > 3000 nM | 59 nM | 239 nM | 113 nM | –
CCc1c2c(nc3ccc(O)cc13)-c1cc3c(c(=O)n1C2)COC(=O)C3(CC)OC(=O)CCCNC(=O)c1cc2cc(-n3c(O)nnc3-c3cc(C(C)C)c(O)cc3O)ccc2n1C (stereo not drawn) [SDC-TRAP-0024, 4,11-diethyl-9-hydroxy-3,14-dioxo-3,4,12,14-tetrahydro-1H-pyrano[3′,4′:6,7]indolizino[1,2-b]quinolin-4-yl 4-(5-(3-(2,4-dihydroxy-5-isopropylphenyl)-5-hydroxy-4H-1,2,4-triazol-4-yl)-1-methyl-1H-indole-2-carboxamido)butanoate] | – | – | 76 nM | – | – | –
CCc1c2c(nc3ccc(OCC(=O)N(C)CCn4ccc5cc(-n6c(O)nnc6-c6cc(C(C)C)c(O)cc6O)ccc54)cc13)-c1cc3c(c(=O)n1C2)COC(=O)C3(O)CC (stereo not drawn) [SDC-TRAP-0027, 2-((4,11-diethyl-4-hydroxy-3,14-dioxo-3,4,12,14-tetrahydro-1H-pyrano[3′,4′:6,7]indolizino[1,2-b]quinolin-9-yl)oxy)-N-(2-(5-(3-(2,4-dihydroxy-5-isopropylphenyl)-5-hydroxy-4H-1,2,4-triazol-4-yl)-1H-indol-1-yl)ethyl)-N-methylacetamide] | > 3000 nM | > 3000 nM | – | 1740 nM | 1340 nM | –
CCc1c2c(nc3ccc(OCC(=O)N(C)CCOCCn4ccc5cc(-n6c(O)nnc6-c6cc(C(C)C)c(O)cc6O)ccc54)cc13)-c1cc3c(c(=O)n1C2)COC(=O)C3(O)CC (stereo not drawn) [SDC-TRAP-0028, 2-((4,11-diethyl-4-hydroxy-3,14-dioxo-3,4,12,14-tetrahydro-1H-pyrano[3′,4′:6,7]indolizino[1,2-b]quinolin-9-yl)oxy)-N-(2-(2-(5-(3-(2,4-dihydroxy-5-isopropylphenyl)-5-hydroxy-4H-1,2,4-triazol-4-yl)-1H-indol-1-yl)ethoxy)ethyl)-N-methylacetamide] | > 3000 nM | > 3000 nM | 468 nM | 1760 nM | 499 nM | % Remaining ([1]; mouse, plasma, 10 μM): 41%
